In patent US11504363B2, “Method of treating cancer and bone cancer pain” (Exelixis, Inc., priority 2011, dated 2022):

Tests used:
[1] = test system: differentiated thyroid cancer, bone metastasis to the skull; assay: Phase 1 drug-drug trial, differentiated thyroid cancer with bone metastasis (Case Study 7); assay type: in vivo, human; settings: one patient, after 9 weeks of treatment
[2] = test system: breast cancer with bone metastases; assay: Randomized discontinuation study, breast cancer with bone metastases (Case Study 6); assay type: in vivo, human; settings: of 10 evaluable for bone scan resolution (forty percent)
[3] = test system: melanoma with bone metastases; assay: Randomized discontinuation study, melanoma with bone metastases (Case Study 5); assay type: in vivo, human; settings: 39 of 65 patients
[4] = test system: CRPC patients with bone metastases; assay: Phase 2 adaptive randomized discontinuation trial (RDT), Case Study 2; assay type: in vivo, human; settings: for patients reporting improvements in bone pain: baseline bone pain; for patients achieving tumor regression / patients experiencing pain relief / patients reducing or eliminating need for narcotic analgesics / patients with marked declines in markers of bone turnover / patients free of disease progression at month 6: post hoc
Excerpt: Data on bone pain and narcotic use, as assessed by the investigator, were collected retrospectively.

[5] = test system: xenograft tumor models; assay: Xenograft tumor models; settings: in vivo
[6] = test system: renal cell carcinoma with bone metastases; assay: Phase I trial, renal cell carcinoma with bone metastases (Case Study 4); assay type: in vivo, human
[7] = test system: CRPC patients with evidence of bone metastases on bone scan; assay: Phase 2 adaptive trial NCT00940225, first three CRPC patients with bone metastases (Case Study 1); assay type: in vivo, human
Protocol: In 2000, local disease recurrence was treated with radiation therapy. […] CAB with leuprolide and bicalutamide was initiated.

[8] = Phase 1 clinical study, tolerability; assay type: in vivo, human; settings: most common adverse events: fatigue, diarrhea, anorexia, rash, palmar-plantar erythrodysesthesia
[9] = test system: pancreatic neuroendocrine tumor model; assay: Murine pancreatic neuroendocrine tumor model; settings: mouse, in vivo
[10] = patients with bone scan resolution
[11] = patients without bone scan resolution

Q: What does the source list for COc1cc2nccc(Oc3ccc(NC(=O)C4(C(=O)Nc5ccc(F)cc5)CC4)cc3)c2cc1OC [Compound 1, N-(4-{[6,7-bis(methyloxy)quinolin-4-yl]oxy}phenyl)-N′-(4-fluorophenyl)cyclopropane-1,1-dicarboxamide]?
A: response of skull bone metastasis as judged by MRI [1]: dramatic response; patients with tumor shrinkage based on bone scan analysis [2]: 4 patients; patients with tumor shrinkage based on bone scan analysis [3]: 60%; patients able to decrease or discontinue narcotic medication for bone pain ([4]; 47 of 67 patients on narcotic analgesics at baseline): 70%; patients with pain improvement ([4]; 56 of 83 patients with bone metastases and bone pain at baseline, at either Week 6 or 12): 68%; patients with resolution or stabilization of metastatic bone lesions on bone scan ([4]; 82 of 108 evaluable patients): 76%; hemoglobin levels in anemic patients ([4]; anemic patients): Durable increases; patients reporting improvements in bone pain ([4]; complete resolution by bone scan (n=10)): 80%; patients reporting improvements in bone pain ([4]; partial resolution by bone scan (n=32)): 84%; patients reporting improvements in bone pain ([4]; stabilization of disease by bone scan (n=13)): 38%; median PFS ([4]; docetaxel-naïve patients (95% CI 24, upper limit not yet reached)): 24 weeks; median PFS ([4]; docetaxel-pretreated patients (95% CI 18, 33)): 29 weeks; patients with stable disease (SD) on bone scan ([4]; independent reviewer, 23 of n=108): 21%; subjects with partial or complete resolution of bone scan ([4]; independent reviewer, 82 of n=108): 76%; patients with progressive disease in bone as best assessment ([4]; independent reviewer, three of n=108): 3%; median PFS ([4]; overall population excluding those randomized to placebo, n=154): 29 weeks; patients achieving tumor regression [4, 10]: 78%; patients experiencing pain relief [4, 10]: 83%; patients reducing or eliminating need for narcotic analgesics [4, 10]: 68%; patients with marked declines in markers of bone turnover [4, 10]: 60%; patients free of disease progression at month 6 ([4]; patients with bone scan resolution (complete or partial)): 61%; patients achieving tumor regression [4, 11]: 58%; patients experiencing pain relief [4, 11]: 43%; patients reducing or eliminating need for narcotic analgesics [4, 11]: 33%; patients with marked declines in markers of bone turnover [4, 11]: 43%; patients free of disease progression at month 6 ([4]; patients without bone scan resolution (stable or progressing bone scan)): 35%; reduction in the risk of progression compared with placebo ([4]; randomized discontinuation phase): 87%; investigator-assessed median PFS from week 12 onward ([4]; randomized discontinuation phase, patients with SD at week 12, Compound 1 group n=14 (95% CI: 11 weeks, upper limit not yet reached)): 21 weeks; tumor effect in xenograft tumor models [5]: causes tumor regression; bone scan analysis ([6]; one patient (FIG. 4)): tumor shrinkage was observed; narcotic use to control pain ([6]; same patient, by seven weeks, continued until week 25): substantially reduced narcotic use; pain ([6]; second patient, pain score 5 on a scale of 10 at baseline, by four weeks, pain-free as of week 73): complete resolution of pain; Bone scan (best response) ([7]; Patient 1): Complete resolution; Hemoglobin (best response, change) ([7]; Patient 1): +1.4 g/dL; PSA (best response, change) ([7]; Patient 1): −78%; Pain (best response) ([7]; Patient 1): Improvement; tALP (best response, change) ([7]; Patient 1): −77%; radiotracer uptake by bone metastases on bone scan ([7]; Patient 1, Week 6): dramatic decrease; bone lesions on bone scan ([7]; Patient 1, Week 12, stable through Week 18): near complete resolution; adverse event leading to withdrawal ([7]; Patient 1, Week 18): Grade 3 diarrhea; bone pain ([7]; Patient 1, four weeks after start): significant reduction; Bone scan (best response) ([7]; Patient 2): Improvement; Hemoglobin (best response, change) ([7]; Patient 2): +1.8 g/dL; PSA (best response, change) ([7]; Patient 2): +61%; Pain (best response) ([7]; Patient 2): Pain-free; tALP (best response, change) ([7]; Patient 2): −6%; bone pain ([7]; Patient 2, Week 4): reduction in bone pain; radiotracer uptake by bone lesions on bone scan ([7]; Patient 2, Week 6): slight flair; hemoglobin increase compared with baseline ([7]; Patient 2, Week 12): 1.8 g/dL; radiotracer uptake on bone scan ([7]; Patient 2, Week 12): substantial reduction; PSA peak ([7]; Patient 2, by Week 16, placebo from Week 12, crossed over to Compound 1 at Week 15): ~6 fold of baseline; PSA ([7]; Patient 2, by Week 18, subsequent to crossing over to Compound 1 from placebo): 2 fold of baseline; Bone scan (best response) ([7]; Patient 3): Near resolution; Hemoglobin (best response, change) ([7]; Patient 3): +2.2 g/dL; PSA (best response, change) ([7]; Patient 3): −57%; Pain (best response) ([7]; Patient 3): Pain-free; tALP (best response, change) ([7]; Patient 3): −77%; hemoglobin increase compared with baseline ([7]; Patient 3, Week 2): 2.2 g/dL; radiotracer uptake on bone scan ([7]; Patient 3, Week 6): dramatic reduction; bone lesions on bone scan ([7]; Patient 3, Week 12): complete resolution of bone lesions; pain ([7]; Patient 3, after three weeks): complete resolution of pain; tolerability [8]: generally well-tolerated; overall survival [9]: substantially improves; tumor invasiveness and metastasis [9]: significantly reduces
